In one experiment the target is cathepsin B (Bos taurus, UniProt P07688). Put plainly: Anti-cathepsin activity (cathepsin B, benzyloxycarbonyl-L-lysine-p-nitrophenyl ester substrate). In kind it is biochemical, bovine. Conditions: Table 8 (Example 29); pH 5.1, 30° C., from bovine spleen; read-out: Inhibitory activity toward cathepsin B, IC50. The procedure: A mixture of a test compound of the present invention and an acetate buffer solution (25 mM, pH=5.1, with 1 mM EDTA, 3.15 ml) containing a substrate (benzyloxycarbonyl-L-lysine-p-nitrophenyl ester, 0.114 mg) was preincubated at 30° C. for 1 minute. To the mixture, a solution (0.05 ml) of cathepsin B (derived from bovine spleen; product of Sigma; 0.05 units) in the acetate buffer was added to start the reaction. Immediately after the start of reaction, the change in absorbance at 326 nm was measured and the inhibitory activity of the test compound was determined by comparison with the control solution.

A further experiment concerns the target T1, papain (Carica papaya, UniProt P00784).
T1 sequence (P00784 134-345): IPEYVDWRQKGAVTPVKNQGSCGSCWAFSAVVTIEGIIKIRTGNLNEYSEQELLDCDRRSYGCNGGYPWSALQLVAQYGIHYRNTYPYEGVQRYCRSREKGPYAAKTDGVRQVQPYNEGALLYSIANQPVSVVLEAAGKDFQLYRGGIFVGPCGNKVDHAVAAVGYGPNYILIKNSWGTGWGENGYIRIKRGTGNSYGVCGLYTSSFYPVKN
Put plainly: Anti-papain activity (casein hydrolysis, Lowry-Folin method). In kind it is biochemical. How it is done: (§1) A mixture of a test compound of the present invention, papain (0.015 units) and a citrate buffer solution (20 mM, pH=6.2,1 ml) containing EDTA (0.88 mg) was preincubated at 30° C. for 5 minutes and a substrate solution (1 ml) was added to start the reaction. The substrate was a 1% solution of casein in the citrate buffer. The reaction was performed at 30° C. for 20 minutes. The reaction was quenched by adding 6.5% trichloroacetic acid (3 ml) to the reaction solution. The amount of casein that had been hydrolyzed enzymatically in the trichloroacetic acid soluble fraction was measured by the Lowry-Folin method and the inhibitory activity of the test compound was determined by comparison with the control solution.
as §1, with “pH=6.2, 1” for “pH=6.2,1”

The target in another experiment is T2, calpain I (Homo sapiens, UniProt P07384).
T2 sequence (P07384 1-714): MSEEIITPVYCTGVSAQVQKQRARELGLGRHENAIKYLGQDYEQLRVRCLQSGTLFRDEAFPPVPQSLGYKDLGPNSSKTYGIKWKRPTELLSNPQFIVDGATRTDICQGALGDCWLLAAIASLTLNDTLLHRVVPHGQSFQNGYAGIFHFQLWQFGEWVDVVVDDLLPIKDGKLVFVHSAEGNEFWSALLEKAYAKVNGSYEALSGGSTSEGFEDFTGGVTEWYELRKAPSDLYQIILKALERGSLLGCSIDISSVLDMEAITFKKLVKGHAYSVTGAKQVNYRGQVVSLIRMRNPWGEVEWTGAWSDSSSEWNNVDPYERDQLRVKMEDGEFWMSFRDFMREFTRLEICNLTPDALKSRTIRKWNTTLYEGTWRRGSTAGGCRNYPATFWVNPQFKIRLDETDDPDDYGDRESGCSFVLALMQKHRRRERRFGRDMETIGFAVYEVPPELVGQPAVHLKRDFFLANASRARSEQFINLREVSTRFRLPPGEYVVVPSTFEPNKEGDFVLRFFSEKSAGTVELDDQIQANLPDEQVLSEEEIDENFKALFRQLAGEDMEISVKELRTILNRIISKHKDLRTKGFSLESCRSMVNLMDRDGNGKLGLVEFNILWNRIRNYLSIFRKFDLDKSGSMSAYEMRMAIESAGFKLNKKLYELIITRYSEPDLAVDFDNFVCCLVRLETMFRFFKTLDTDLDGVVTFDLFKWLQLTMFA
T2 sequence (P04632 1-268 partner): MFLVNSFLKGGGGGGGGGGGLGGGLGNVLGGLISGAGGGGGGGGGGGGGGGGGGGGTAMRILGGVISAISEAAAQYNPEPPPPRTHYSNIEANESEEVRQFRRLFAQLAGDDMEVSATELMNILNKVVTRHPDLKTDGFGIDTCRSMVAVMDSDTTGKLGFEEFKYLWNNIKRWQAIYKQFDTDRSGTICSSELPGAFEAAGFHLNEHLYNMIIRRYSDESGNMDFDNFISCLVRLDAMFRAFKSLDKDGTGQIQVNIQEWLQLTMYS
Nature of the experiment: Anti-calpain activity, calpain I (casein hydrolysis, Ross-Schatz method). In kind it is biochemical.

The next experiment deals with T3, calpain II (Homo sapiens, UniProt P17655).
T3 sequence (P17655 1-700): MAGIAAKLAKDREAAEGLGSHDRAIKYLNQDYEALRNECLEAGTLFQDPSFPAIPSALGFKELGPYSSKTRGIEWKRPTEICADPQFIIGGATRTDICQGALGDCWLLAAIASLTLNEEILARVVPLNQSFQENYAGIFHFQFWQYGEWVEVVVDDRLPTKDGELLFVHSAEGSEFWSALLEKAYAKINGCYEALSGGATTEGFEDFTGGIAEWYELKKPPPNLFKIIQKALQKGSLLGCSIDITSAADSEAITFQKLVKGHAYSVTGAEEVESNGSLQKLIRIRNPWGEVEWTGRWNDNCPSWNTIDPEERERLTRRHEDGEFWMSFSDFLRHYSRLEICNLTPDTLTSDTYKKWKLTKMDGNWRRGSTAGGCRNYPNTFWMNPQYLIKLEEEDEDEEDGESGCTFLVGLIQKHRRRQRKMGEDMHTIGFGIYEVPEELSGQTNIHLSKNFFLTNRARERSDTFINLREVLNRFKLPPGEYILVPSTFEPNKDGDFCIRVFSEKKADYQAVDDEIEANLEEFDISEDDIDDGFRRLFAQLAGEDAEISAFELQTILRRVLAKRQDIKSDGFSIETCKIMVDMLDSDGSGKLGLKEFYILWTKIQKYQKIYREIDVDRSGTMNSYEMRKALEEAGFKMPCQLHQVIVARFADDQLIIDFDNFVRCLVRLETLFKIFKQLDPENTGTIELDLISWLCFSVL
T3 sequence (P04632 1-268 partner): T2 sequence (P04632 1-268 partner)
Nature of the experiment: Anti-calpain activity, calpain II (casein hydrolysis, Ross-Schatz method). In kind it is biochemical.

[1] abbreviates: Table 2 (Example 28), pH 6.2, 30° C., 20 minutes, casein, read-out: Inhibitory activity toward papain, IC50.
The mark [2] stands for this setting: Table 3 (Example 28), pH 7.5, 30° C., 30 minutes, casein, read-out: Inhibitory activity toward calpain I, IC50.
The mark [3] stands for this setting: Table 4 (Example 28), pH 7.5, 30° C., 30 minutes, casein, read-out: Inhibitory activity toward calpain II, IC50.
Setting [4] is: Table 6 (Example 29), pH 7.5, 30° C., 30 minutes, casein, read-out: Inhibitory activity toward calpain I, IC50.
[5] abbreviates: Table 7 (Example 29), pH 7.5, 30° C., 30 minutes, casein, read-out: Inhibitory activity toward calpain II, IC50.
[6] abbreviates: Table 5 (Example 29), pH 6.2, 30° C., 20 minutes, casein, read-out: Inhibitory activity toward papain, IC50.

The results in this text go back to patent US5081284A, “Proteinase inhibitor” (Suntory Limited, priority 1989, dated 1992).

Read-outs that look alike come from different tables or passages of the source. Peptide text beside a SMILES is read from it. * marks the point of attachment. Cbz = O=C(OCc1ccccc1)*

What is called IC50 is the midpoint of a concentration-inhibition curve. Turning to `CCCC[C@@H](C=O)NC(=O)[C@H](CC(C)C)NC(c1ccccc1)(c1ccccc1)c1ccccc1` [Example 15, N-triphenylmethyl-L-leucyl-L-norleucinal], the half-maximal inhibitory concentration (IC50) on cathepsin B was 32000 nM.
With `CC(=O)N[C@@H](CC(C)C)C(=O)N[C@@H](CC(C)C)C(=O)N[C@H](C=O)CCCNC(=N)N` [Leupeptin, reference compound], the values for the half-inhibitory concentration (IC50) on papain (setting [1]), on calpain I and against calpain II were 53 nM, 210 nM and 940 nM, respectively.
Consider `CC(C)C[C@H](NC(=O)OCc1ccccc1)C(=O)N[C@H](C=O)Cc1ccccc1` [Example 19, N-benzyloxycarbonyl-L-leucyl-L-phenylalaninal] (Cbz-Leu-Phe-aldehyde), for which the IC50 on calpain I (setting [2]) came out at 100 nM; at calpain II (setting [3]), 35 nM.
As for `CSCC[C@@H](C=O)NC(=O)[C@H](CC(C)C)NC(=O)OCc1ccccc1` [Example 21, N-benzyloxycarbonyl-L-leucyl-L-methioninal] (Cbz-Leu-Met-aldehyde), the IC50 at calpain II (setting [3]) was 25 nM.
For the compound `CCCC[C@@H](C=O)NC(=O)[C@H](CC(C)C)N1C(=O)c2ccccc2C1=O` [Example 17, N-phthaloyl-L-leucyl-L-norleucinal], the half-inhibitory concentration (IC50) on cathepsin B was determined as 100000 nM.
The same measure, in the same setting: the result for `CCCCCC(=O)N[C@@H](CC(C)C)C(=O)N[C@H](C=O)CCCC` [Example 2, N-caproyl-L-leucyl-L-norleucinal] reads 9200 nM.
On to `CCCC[C@H](NC(=O)[C@H](CC(C)C)NC(=O)CCCc1ccccc1)C(=O)CCl` [Example 27, N-(4-phenylbutanoyl)-L-leucyl-L-norleucyl chloromethyl], for which the results for the IC50 at papain (setting [1]), at calpain I (setting [2]) and on calpain II (setting [3]) were 25 nM, 71 nM and 140 nM, respectively.
As for `CCCC[C@@H](C=O)NC(=O)[C@H](CCCC)NC(=O)OCc1ccccc1` [Example 18, N-benzyloxycarbonyl-L-norleucyl-L-norleucinal], the IC50 at cathepsin B was found to be 110 nM; on calpain I (setting [4]), 700 nM.
For `CCCCCCCC(=O)N[C@@H](CC(C)C)C(=O)N[C@H](C=O)CCCC` [Example 1, N-caprylyl-L-leucyl-L-norleucinal] the same measures were 110 nM and 160 nM.
Turning to `CCCC[C@@H](C=O)NC(=O)[C@H](CC(C)C)NC(=O)OC(C)(C)C` [Example 4, N-(t-butyloxycarbonyl)-L-leucyl-L-norleucinal], the IC50 at cathepsin B is 58 nM; at calpain I (setting [4]), 30 nM; at calpain II (setting [5]) it was 120 nM.
Take `CCCC[C@@H](C=O)NC(=O)[C@H](CC(C)C)NC(=O)OCC(Cl)(Cl)Cl` [Example 10, N-(2,2,2-trichloroethyloxycarbonyl)-L-leucyl-L-norleucinal]: the IC50 at cathepsin B came to 330 nM; at papain (setting [6]) it was 260 nM; at calpain I (setting [4]), 96 nM.
As to `CC(C)C[C@H](NC(=O)CCCc1ccccc1)C(=O)N[C@H](C=O)Cc1ccccc1` [Example 22, N-(4-phenyl)butanoyl-L-leucyl-L-phenylalaninal], the values for the IC50 at papain (setting [1]) and at calpain II (setting [3]) were 18 nM and 29 nM, respectively.
As for `CCCC[C@@H](C=O)NC(=O)[C@H](CC(C)C)NC(C)=CC(=O)c1ccccc1` [Example 16, N-(2-benzoyl-1-methylvinyl)-L-leucyl-L-norleucinal], the IC50 on cathepsin B turned out to be 7000 nM; on papain (setting [6]), 96 nM; on calpain I (setting [4]), 400 nM.
Turning to `CCCC[C@@H](C=O)NC(=O)[C@H](CC(C)C)NC(=O)OCc1ccccc1` [Example 20, N-benzyloxycarbonyl-L-leucyl-L-norleucinal], the IC50 on papain (setting [6]) turned out to be 310 nM; on calpain I (setting [2]), 52 nM; on calpain I (setting [4]), 710 nM; on calpain II (setting [3]), 34 nM; on calpain II (setting [5]), 130 nM.
Take `CCCC[C@@H](C=O)NC(=O)[C@H](CC(C)C)NS(=O)(=O)c1ccc(C)cc1` [Example 12, N-(p-toluenesulfonyl)-L-leucyl-L-norleucinal]: the 50% inhibitory concentration (IC50) on cathepsin B was 1200 nM; on papain (setting [6]), 180 nM; on calpain I (setting [4]), 110 nM.
For the compound `CCCC[C@H](NC(=O)[C@H](CC(C)C)NC(=O)OCc1ccccc1)C(=O)CCl` [Example 26, N-benzyloxycarbonyl-L-leucine 1s-chloroacetyl-n-pentylamide], the values for the IC50 on papain (setting [1]), on calpain I (setting [2]) and at calpain II (setting [3]) were 12 nM, 150 nM and 120 nM, respectively.
Turning to `CCCC[C@@H](C=O)NC(=O)[C@H](CC(C)C)NC(=O)OC12CC3CC(CC(C3)C1)C2` [Example 5, N-adamantyloxycarbonyl-L-leucyl-L-norleucinal], the IC50 on cathepsin B came out at 180 nM; against papain it was 210 nM; on calpain I (setting [4]) it was 150 nM.
In the case of `CSCC[C@@H](C=O)NC(=O)[C@H](CC(C)C)NC(=O)CCCc1ccccc1` [Example 24, N-(4-phenyl)butanoyl-L-leucyl-L-methioninal], the half-inhibitory concentration (IC50) on papain (setting [1]) was 19 nM; on calpain I (setting [2]), 38 nM; at calpain II (setting [3]), 71 nM.
`CCCC[C@@H](C=O)NC(=O)[C@H](CC(C)C)NC(=O)OCC[Si](C)(C)C` [Example 11, N-(2-trimethylsilylethyloxycarbonyl)-L-leucyl-L-norleucinal]: the IC50 at cathepsin B is 960 nM.
Take `CCCC[C@@H](C=O)NC(=O)[C@H](CC(C)C)NC(=O)CCCc1ccccc1` [Example 23, N-(4-phenylbutanoyl)-L-leucyl-L-norleucinal]: the results for the half-inhibitory concentration (IC50) at papain (setting [1]), at calpain I (setting [2]) and on calpain II (setting [3]) were 15 nM, 40 nM and 320 nM, respectively.
